PubChem BioAssay AID330 (DTP/NCI, 2004)
“And” between values parts separate entries of the source, which are not always exact repeats. Identical values can stand only once. Inconclusive results and toxic doses are left out.

Tested on: P388 leukemia ip, CD2F1 mice, survival T/C
Test: NCI In Vivo Anticancer Drug Screen. Data for tumor model P388 Leukemia (intraperitoneal) in CD2F1 (CDF1) mice
Details: endpoint: median survival time, higher = longer survival
In short: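 Mice carrying the transplanted tumor received test compound or vehicle. Survival was recorded in each group, and the value is the treated-group measurement divided by that of the vehicle-treated control group.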

[1] = dose: 50.0 mg/kg/injection, schedule: Q01DX005 (ip), vehicle: saline with Tween-80
[2] = dose: 100.0 mg/kg/injection, schedule: Q01DX005 (ip), vehicle: saline with Tween-80
[3] = dose: 200.0 mg/kg/injection, schedule: Q01DX005 (ip), vehicle: saline with Tween-80
[4] = dose: 12.5 mg/kg/injection, schedule: Q01DX005 (ip), vehicle: Klucel (hydroxypropylcellulose) (HPC)
[5] = dose: 12.5 mg/kg/injection, schedule: Q01DX009 (ip), vehicle: Klucel (hydroxypropylcellulose) (HPC)
[6] = dose: 25.0 mg/kg/injection, schedule: Q01DX009 (ip), vehicle: Klucel (hydroxypropylcellulose) (HPC)
[7] = dose: 50.0 mg/kg/injection, schedule: Q04DX003 (ip), vehicle: saline with Tween-80
[8] = dose: 100.0 mg/kg/injection, schedule: Q04DX003 (ip), vehicle: saline with Tween-80
[9] = dose: 200.0 mg/kg/injection, schedule: Q04DX003 (ip), vehicle: saline with Tween-80
[10] = dose: 400.0 mg/kg/injection, schedule: Q04DX003 (ip), vehicle: saline with Tween-80
[11] = dose: 60.0 mg/kg/injection, schedule: Q01DX005 (ip), vehicle: saline with Tween-80
[12] = dose: 120.0 mg/kg/injection, schedule: Q01DX005 (ip), vehicle: saline with Tween-80
[13] = dose: 240.0 mg/kg/injection, schedule: Q01DX005 (ip), vehicle: saline with Tween-80
[14] = dose: 50.0 mg/kg/injection, schedule: Q01DX009 (ip), vehicle: saline with Tween-80
[15] = dose: 100.0 mg/kg/injection, schedule: Q01DX009 (ip), vehicle: saline with Tween-80
[16] = dose: 50.0 mg/kg/injection, schedule: Q01DX005 (ip), vehicle: Klucel (hydroxypropylcellulose) (HPC)

In the case of `CC(C)(C)[Si](C)(C)OC(=O)Nc1ccc(N(CCCl)CCCl)cc1`, the T/C (dose: 0.05 mg/kg/injection, schedule: Q01DX009 (ip), vehicle: saline with Tween-80) is reported as 122 % of control, the T/C (dose: 0.07 mg/kg/injection, schedule: Q01DX009 (ip), vehicle: saline with Tween-80) is reported as 105 % of control and the T/C (dose: 0.11 mg/kg/injection, schedule: Q01DX009 (ip), vehicle: saline with Tween-80) is reported as 118 % of control. The T/C (dose: 0.16 mg/kg/injection, schedule: Q01DX009 (ip), vehicle: saline with Tween-80) was 123 % of control, the T/C (dose: 5.0 mg/kg/injection, schedule: Q04DX003 (ip), vehicle: distilled water + Tween-80) was 153 % of control and 165 % of control and the T/C (dose: 10.0 mg/kg/injection, schedule: Q04DX003 (ip), vehicle: distilled water + Tween-80) was 158 % of control and 161 % of control and 203 % of control. The T/C (dose: 40.0 mg/kg/injection, schedule: Q04DX003 (ip), vehicle: distilled water + Tween-80) was 100 % of control, the T/C (dose: 1.5 micrograms/kg/injection, schedule: Q01DX009 (ip), vehicle: saline) was 95 % of control and the T/C (dose: 3.1 micrograms/kg/injection, schedule: Q01DX009 (ip), vehicle: saline) was 97 % of control. The T/C (dose: 6.2 micrograms/kg/injection, schedule: Q01DX009 (ip), vehicle: saline) was 102 % of control, the T/C (dose: 12.5 micrograms/kg/injection, schedule: Q01DX009 (ip), vehicle: saline) was 104 % of control and the T/C (dose: 25.0 micrograms/kg/injection, schedule: Q01DX009 (ip), vehicle: saline) was 94 % of control. For the same molecule, the T/C (dose: 50.0 micrograms/kg/injection, schedule: Q01DX009 (ip), vehicle: saline) was 110 % of control.

With `Nc1ccc2c(C(F)(F)F)cc(=O)oc2c1` the T/C [1] was 106 % of control, the T/C [2] was 99 % of control and the T/C [3] was 94 % of control.

`CC[C@@H](C)[C@H]([C@H](CC(=O)N1CCC[C@@H]1[C@@H](OC)[C@H](C)C(=O)N[C@H](Cc1ccccc1)c1nccs1)OC)N(C)C(=O)[C@H](NC(=O)[C@@H](C(C)C)N(C)C)C(C)C` was tested, and the T/C (dose: 6.5 micrograms/kg/injection, schedule: Q01DX005 (ip), vehicle: saline + alcohol) was 155 % of control and the T/C (dose: 13.5 micrograms/kg/injection, schedule: Q01DX009 (ip), vehicle: saline + alcohol) was 173 % of control.

With `Cc1cc2nc3cc(C)c(N)cc3[n+](-c3ccccc3)c2cc1N` the T/C (dose: 6.25 mg/kg/injection, schedule: Q01DX005 (ip), vehicle: Klucel (hydroxypropylcellulose) (HPC)) was 109 % of control and the T/C [4] was 116 % of control.

`COc1cc(N=Nc2cc(CN(C)C)cc3ncccc23)c(OC)cc1N=Nc1ccc([N+](=O)[O-])cc1` was tested, and the T/C (dose: 12.5 mg/kg/injection, schedule: Q01DX005 (ip), vehicle: saline with Tween-80) was 98 % of control, the T/C [5] was 93 % of control and the T/C (dose: 25.0 mg/kg/injection, schedule: Q01DX005 (ip), vehicle: saline with Tween-80) was 109 % of control. The T/C [6] was 91 % of control, the T/C (dose: 38.25 mg/kg/injection, schedule: Q01DX009 (ip), vehicle: Klucel (hydroxypropylcellulose) (HPC)) was 102 % of control and the T/C [1] was 100 % of control. The T/C (dose: 50.0 mg/kg/injection, schedule: Q01DX009 (ip), vehicle: Klucel (hydroxypropylcellulose) (HPC)) was 120 % of control and 93 % of control, the T/C (dose: 76.5 mg/kg/injection, schedule: Q01DX009 (ip), vehicle: Klucel (hydroxypropylcellulose) (HPC)) was 94 % of control and the T/C [2] was 107 % of control. The T/C (dose: 100.0 mg/kg/injection, schedule: Q01DX009 (ip), vehicle: Klucel (hydroxypropylcellulose) (HPC)) was 99 % of control and 115 % of control and 95 % of control, the T/C (dose: 153.0 mg/kg/injection, schedule: Q01DX009 (ip), vehicle: Klucel (hydroxypropylcellulose) (HPC)) was 95 % of control and the T/C [3] was 107 % of control. The T/C (dose: 200.0 mg/kg/injection, schedule: Q01DX009 (ip), vehicle: Klucel (hydroxypropylcellulose) (HPC)) was 108 % of control and 93 % of control, the T/C (dose: 306.0 mg/kg/injection, schedule: Q01DX009 (ip), vehicle: Klucel (hydroxypropylcellulose) (HPC)) was 110 % of control and the T/C (dose: 400.0 mg/kg/injection, schedule: Q01DX005 (ip), vehicle: saline with Tween-80) was 109 % of control. For the same molecule, the T/C (dose: 400.0 mg/kg/injection, schedule: Q01DX009 (ip), vehicle: Klucel (hydroxypropylcellulose) (HPC)) was 102 % of control and 94 % of control.

`Cc1ncc2c(=O)c3c(ccc4ccccc43)oc2n1` was tested, and the T/C [7] was 96 % of control, the T/C [8] was 96 % of control and the T/C [9] was 97 % of control. The T/C [10] was 103 % of control.

For `CCN(CC)CCOC1CC(C)CCC1C(C)C` (stereo not given), the T/C (dose: 50.0 mg/kg/injection, schedule: Q01DX005 (ip), vehicle: saline) was 111 % of control, the T/C (dose: 100.0 mg/kg/injection, schedule: Q01DX005 (ip), vehicle: saline) was 100 % of control and the T/C (dose: 200.0 mg/kg/injection, schedule: Q01DX005 (ip), vehicle: saline) was 100 % of control.

In the case of `Cc1ccc(-n2cc(-c3ccc(Cl)cc3)c3c(N)ncnc32)cc1`, the T/C [11] is reported as 105 % of control, the T/C [12] is reported as 104 % of control and the T/C [13] is reported as 88 % of control.

`CCOC(=O)Cc1cn2cc(Cl)cc(Cl)c2n1` was tested, and the T/C [8] was 111 % of control, the T/C [9] was 100 % of control and the T/C [10] was 100 % of control.

In the case of `CCn1c2ccccc2n2c(=O)c(Cl)c(C)c(C#N)c12`, the T/C [11] is reported as 100 % of control, the T/C [12] is reported as 98 % of control and the T/C [13] is reported as 97 % of control.

`CCN(C(=O)CCl)c1ccccc1C` was tested, and the T/C [7] was 100 % of control and the T/C [8] was 100 % of control.

With `O=CC(=C\c1ccco1)/C(C=O)=C\c1ccco1` the T/C [1] was 97 % of control and the T/C [2] was 112 % of control.

For `CCCCCCCCCCCC1=C(O)C(=O)C(I)=C(O)C1=O`, the T/C [1] was 108 % of control, the T/C [2] was 100 % of control and 108 % of control and the T/C [3] was 108 % of control.

In the case of `CCOC(=O)/C(C#N)=C(\C)c1ccc(O)c(OC)c1`, the T/C [11] is reported as 100 % of control, the T/C [12] is reported as 101 % of control and the T/C [13] is reported as 95 % of control.

`Fc1ccccc1C(Nc1ncccn1)Nc1ncccn1` was tested, and the T/C [14] was 88 % of control, the T/C (dose: 50.0 mg/kg/injection, schedule: Q01DX009 (ip), vehicle: saline) was 94 % of control and the T/C [15] was 87 % of control. For the same molecule, the T/C (dose: 100.0 mg/kg/injection, schedule: Q01DX009 (ip), vehicle: saline) was 99 % of control, the T/C (dose: 200.0 mg/kg/injection, schedule: Q01DX009 (ip), vehicle: saline with Tween-80) was 87 % of control and the T/C (dose: 200.0 mg/kg/injection, schedule: Q01DX009 (ip), vehicle: saline) was 94 % of control.

For `[Cl][Cu][Cl].c1ccc2[nH]cnc2c1.c1ccc2[nH]cnc2c1`, the T/C (dose: 6.25 mg/kg/injection, schedule: Q01DX009 (ip), vehicle: Klucel (hydroxypropylcellulose) (HPC)) was 113 % of control, the T/C [5] was 104 % of control and the T/C [6] was 100 % of control.

For `Cc1cc2c(c(O)cc(=O)n2C)c(=O)n1C`, the T/C (dose: 60.0 mg/kg/injection, schedule: Q01DX005 (ip), vehicle: Klucel (hydroxypropylcellulose) (HPC)) was 102 % of control, the T/C (dose: 120.0 mg/kg/injection, schedule: Q01DX005 (ip), vehicle: Klucel (hydroxypropylcellulose) (HPC)) was 91 % of control and the T/C (dose: 240.0 mg/kg/injection, schedule: Q01DX005 (ip), vehicle: Klucel (hydroxypropylcellulose) (HPC)) was 91 % of control.

For `CNC/C(Cl)=N/S(=O)(=O)c1ccc(C)cc1`, the T/C [11] was 99 % of control, the T/C [12] was 99 % of control and the T/C [13] was 105 % of control.

With `Cc1c[nH]c2nc(C)n(-c3ccc(Cl)cc3)c(=N)c12` the T/C [4] was 98 % of control, the T/C (dose: 25.0 mg/kg/injection, schedule: Q01DX005 (ip), vehicle: Klucel (hydroxypropylcellulose) (HPC)) was 104 % of control and the T/C [16] was 103 % of control.

With `CCCCOCc1c(-c2ccccc2)sc2ccccc2c1=O` the T/C [1] was 97 % of control, the T/C [2] was 102 % of control and the T/C [3] was 100 % of control.

For `Cc1c(N=Nc2ccc([N+](=O)[O-])cc2)nc2scc(-c3ccccc3)n12`, the T/C (dose: 25.0 mg/kg/injection, schedule: Q04DX002 (ip), vehicle: Klucel (hydroxypropylcellulose) (HPC)) was 121 % of control and the T/C (dose: 100.0 mg/kg/injection, schedule: Q04DX002 (ip), vehicle: Klucel (hydroxypropylcellulose) (HPC)) was 86 % of control.

In the case of `N#CCS(=O)(=O)c1cccc[n+]1[O-]`, the T/C [1] is reported as 107 % of control and 115 % of control, the T/C [2] is reported as 118 % of control and 122 % of control and the T/C [3] is reported as 123 % of control.

With `COc1ccc(O)c(C(C)=O)c1` the T/C [16] was 102 % of control, the T/C (dose: 100.0 mg/kg/injection, schedule: Q01DX005 (ip), vehicle: Klucel (hydroxypropylcellulose) (HPC)) was 100 % of control and the T/C (dose: 200.0 mg/kg/injection, schedule: Q01DX005 (ip), vehicle: Klucel (hydroxypropylcellulose) (HPC)) was 98 % of control.

`Nc1ccc2ccc(O)cc2c1` was tested, and the T/C (dose: 12.5 mg/kg/injection, schedule: Q01DX009 (ip), vehicle: saline with Tween-80) was 100 % of control, the T/C (dose: 25.0 mg/kg/injection, schedule: Q01DX009 (ip), vehicle: saline with Tween-80) was 100 % of control and the T/C [14] was 100 % of control. For the same molecule, the T/C [15] was 98 % of control.
